# Assay results as given in patent US8124793B2, “Derivatives of ethylene methanedisulfonate as cancer chemotherapeutic agents” (priority 2007, dated 2012).
# What was measured:
# Format in all cases: cell-based
# U-251 = test: NCI screen, growth of human tumor cells: CNS Cancer U-251; conditions: U-251 (CNS Cancer), 10^−4 molar
# Procedure, shortened: (§1)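 The NCI screen tests each compound on human cancer cell lines and reports percent growth. Concentrations are given in molar units; the number of data points per compound is sixty at minimum.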
# HOP-62 = test: NCI screen, growth of human tumor cells: Non-Small Cell Lung HOP-62; conditions: HOP-62 (Non-Small Cell Lung), 10^−4 molar
# Procedure, shortened: as §1
# HOP-92 = test: NCI screen, growth of human tumor cells: Non-Small Cell Lung HOP-92
# Procedure, shortened: as §1
# K562 = test: NCI screen, growth of human tumor cells: Leukemia K562; conditions: K562 (Leukemia), 10^−4 molar
# Procedure, shortened: as §1
# RL = test: NCI screen, growth of human tumor cells: Lymphoma RL
# NCI-H460 = test: NCI screen, growth of human tumor cells: Non-Small Cell Lung NCI-H460; conditions: NCI-H460 (Non-Small Cell Lung), 10^−4 molar
# Procedure, shortened: as §1
# CCRF-CEM = test: NCI screen, growth of human tumor cells: Leukemia CCRF-CEM; conditions: CCRF-CEM (Leukemia), 10^−4 molar
# Procedure, shortened: as §1
# SK-MEL-5 = test: NCI screen, growth of human tumor cells: Melanoma SK-MEL-5; conditions: SK-MEL-5 (Melanoma), 10^−4 molar
# Procedure, shortened: as §1
# HCT-15 = test: NCI screen, growth of human tumor cells: Colon Cancer HCT-15; conditions: HCT-15 (Colon Cancer), 10^−4 molar
# Procedure, shortened: as §1
# SN12C = test: NCI screen, growth of human tumor cells: Renal Cancer SN12C; conditions: SN12C (Renal Cancer), 10^−4 molar
# Procedure, shortened: as §1
# CAKI-1 = test: NCI screen, growth of human tumor cells: Renal Cancer CAKI-1; conditions: CAKI-1 (Renal Cancer), 10^−4 molar
# Procedure, shortened: as §1
# SU-DAL-7 = test: NCI screen, growth of human tumor cells: Lymphoma SU-DAL-7
# HCT-116 = test: NCI screen, growth of human tumor cells: Colon Cancer HCT-116; conditions: HCT-116 (Colon Cancer), 10^−4 molar
# Procedure, shortened: as §1
# HOP-18 = test: NCI screen, growth of human tumor cells: Non-Small Cell Lung HOP-18
# Procedure, shortened: as §1
# MDA-MB-435 = test: NCI screen, growth of human tumor cells: Breast Cancer MDA-MB-435; conditions: MDA-MB-435 (Breast Cancer), 10^−4 molar
# Procedure, shortened: as §1
# human cancer cells = test: NCI screen summary over the cancers tested (negative growth of human cancer cells); conditions: 10^−4 M conc.; cancers with negative growth / cancers tested
# Protocol: (§2) In the NCI screening process, each compound was tested and described by a minimum of 60 data points. The test data include, but are not limited to the type of cancer, the molar concentration used in the screen, and the percent growth of the cancer. In some cases, NMR and elemental analysis were used for structural assignment.
# The derivatives in the tables are grouped using the same category as in the tables 1-6.
# MDA-N = test: NCI screen, growth of human tumor cells: Breast Cancer MDA-N; conditions: 10^−4 molar
# Protocol: as §2
# PA682 = test: NCI screen, growth of human tumor cells: Lymphoma PA682
# UACC-257 = test: NCI screen, growth of human tumor cells: Melanoma UACC-257; conditions: UACC-257 (Melanoma), 10^−4 molar
# Procedure, shortened: as §1
# KD488 = test: NCI screen, growth of human tumor cells: Lymphoma KD488
# SR = test: NCI screen, growth of human tumor cells: Leukemia SR; conditions: SR (Leukemia), 10^−4 molar
# Procedure, shortened: as §1
# OVCAR-8 = test: NCI screen, growth of human tumor cells: Ovarian Cancer OVCAR-8; conditions: OVCAR-8 (Ovarian Cancer), 10^−4 molar
# Procedure, shortened: as §1
# SF-295 = test: NCI screen, growth of human tumor cells: CNS Cancer SF-295; conditions: SF-295 (CNS Cancer), 10^−4 molar
# Procedure, shortened: as §1
# 786-0 = test: NCI screen, growth of human tumor cells: Renal Cancer 786-0; conditions: 786-0 (Renal Cancer), 10^−4 molar
# Procedure, shortened: as §1
# RPMI-8226 = test: NCI screen, growth of human tumor cells: Leukemia RPMI-8226; conditions: RPMI-8226 (Leukemia), 10^−4 molar
# Procedure, shortened: as §1
# NCI-H23 = test: NCI screen, growth of human tumor cells: Non-Small Cell Lung NCI-H23; conditions: NCI-H23 (Non-Small Cell Lung), 10^−4 molar
# Procedure, shortened: as §1
# LOXIMVI = test: NCI screen, growth of human tumor cells: Melanoma LOXIMVI; conditions: LOXIMVI (Melanoma), 10^−4 molar
# Procedure, shortened: as §1
# MCF7/ADR-RES = test: NCI screen, growth of human tumor cells: Breast Cancer MCF7/ADR-RES; conditions: MCF7/ADR-RES (Breast Cancer), 10^−4 molar
# Procedure, shortened: as §1
# M14 = test: NCI screen, growth of human tumor cells: Melanoma M14; conditions: M14 (Melanoma), 10^−4 molar
# Procedure, shortened: as §1
# MDA-MB-231/ATCC = test: NCI screen, growth of human tumor cells: Breast Cancer MDA-MB-231/ATCC; conditions: MDA-MB-231/ATCC (Breast Cancer), 10^−4 molar
# Procedure, shortened: as §1
# AS283 = test: NCI screen, growth of human tumor cells: Lymphoma AS283
# MCF 7 = test: NCI screen, growth of human tumor cells: Breast Cancer MCF 7; conditions: MCF 7 (Breast Cancer), 10^−4 molar
# Procedure, shortened: as §1
# MOLT-4 = test: NCI screen, growth of human tumor cells: Leukemia MOLT-4; conditions: MOLT-4 (Leukemia), 10^−4 molar
# Procedure, shortened: as §1
compound,measurement,setting,value
"O=S1(=O)OCCOS(=O)(=O)C1Cc1nc2ccccc2[nH]1 [NSC 679042, ethylene 2-benzimidazolyl-1,1-ethanedisulfonate]",percent of growth of human tumor cells,U-251,21%
same,percent of growth of human tumor cells,HOP-62,9%
same,% Growth,"HOP-92; HOP-92, 10^−4 molar",18%
same,% Growth,"HOP-92; HOP-92, 10^−5 molar",41%
same,% Growth,"HOP-92; HOP-92, 10^−6 molar",29%
same,% Growth,"HOP-92; HOP-92, 10^−7 molar",51%
same,% Growth,"HOP-92; HOP-92, 10^−8 molar",56%
same,percent of growth of human tumor cells,K562,14%
same,% Growth,RL; 10^−4 molar,−45%
same,% Growth,RL; 10^−5 molar,41%
same,percent of growth of human tumor cells,NCI-H460,14%
same,percent of growth of human tumor cells,CCRF-CEM,15%
same,percent of growth of human tumor cells,SK-MEL-5,−28%
same,percent of growth of human tumor cells,HCT-15,4%
same,percent of growth of human tumor cells,SN12C,8%
same,percent of growth of human tumor cells,CAKI-1,−2%
same,% Growth,"SU-DAL-7; SU-DAL-7, 10^−4 molar",−42%
same,% Growth,"SU-DAL-7; SU-DAL-7, 10^−5 molar",29%
same,% Growth,"SU-DAL-7; SU-DAL-7, 10^−6 molar",57%
same,percent of growth of human tumor cells,HCT-116,−31%
same,% Growth,"HOP-18; HOP-18, 10^−4 molar",18%
same,% Growth,"HOP-18; HOP-18, 10^−5 molar",41%
same,% Growth,"HOP-18; HOP-18, 10^−6 molar",29%
same,% Growth,"HOP-18; HOP-18, 10^−7 molar",51%
same,% Growth,"HOP-18; HOP-18, 10^−8 molar",58%
same,percent of growth of human tumor cells,MDA-MB-435,23%
same,Percentage of cancers showing negative growth cancers tested,human cancer cells,10^−4 M conc. = 12/32 = 38%
same,percent of growth of human tumor cells,MDA-N,3%
same,% Growth,"PA682; PA682, 10^−4 molar",−34%
same,% Growth,"PA682; PA682, 10^−5 molar",18%
same,percent of growth of human tumor cells,UACC-257,12%
same,% Growth,"KD488; KD488, 10^−4 molar",−39%
same,% Growth,"KD488; KD488, 10^−5 molar",39%
same,percent of growth of human tumor cells,SR,12%
same,percent of growth of human tumor cells,OVCAR-8,−33%
same,percent of growth of human tumor cells,SF-295,0%
same,percent of growth of human tumor cells,786-0,22%
same,percent of growth of human tumor cells,RPMI-8226,−42%
same,percent of growth of human tumor cells,NCI-H23,16%
same,percent of growth of human tumor cells,LOXIMVI,−50%
same,percent of growth of human tumor cells,MCF7/ADR-RES,15%
same,percent of growth of human tumor cells,M14,23%
same,percent of growth of human tumor cells,MDA-MB-231/ATCC,30%
same,% Growth,"AS283; AS283, 10^−4 molar",−25%
same,% Growth,"AS283; AS283, 10^−5 molar",15%
same,% Growth,"AS283; AS283, 10^−6 molar",58%
same,% Growth,"AS283; AS283, 10^−7 molar",54%
same,percent of growth of human tumor cells,MCF 7,6%
same,percent of growth of human tumor cells,MOLT-4,−3%
